# Reference: PubChem BioAssay (NCI)
#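 Tested at 5 concentrations; 48 h exposure; 96-well plates; endpoints linearly interpolated, else capped at highest concentration. Abbreviation: GI50, concentration required for 50% inhibition of growth. TGI: concentration producing complete growth inhibition.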
# Legend:
# Assay in all cases: NCI-60 cell line screen, 48 h
# 786-0 renal = tested on: 786-0 renal
# A498 renal = tested on: A498 renal
# A549 NSCLC = tested on: A549 NSCLC
# ACHN renal = tested on: ACHN renal
# BT-549 breast = tested on: BT-549 breast
# CAKI-1 renal = tested on: CAKI-1 renal
# CCRF-CEM leukemia = tested on: CCRF-CEM leukemia
# COLO 205 colon = tested on: COLO 205 colon
# EKVX NSCLC = tested on: EKVX NSCLC
# HCC-2998 colon = tested on: HCC-2998 colon
# HCT-116 colon = tested on: HCT-116 colon
# HCT-15 colon = tested on: HCT-15 colon
# HL-60(TB) leukemia = tested on: HL-60(TB) leukemia
# HOP-62 NSCLC = tested on: HOP-62 NSCLC
# HOP-92 NSCLC = tested on: HOP-92 NSCLC
# HS 578T breast = tested on: HS 578T breast
# HT29 colon = tested on: HT29 colon
# IGROV1 ovarian = tested on: IGROV1 ovarian
# K-562 leukemia = tested on: K-562 leukemia
# KM12 colon = tested on: KM12 colon
# LOX IMVI melanoma = tested on: LOX IMVI melanoma
# M14 melanoma = tested on: M14 melanoma
# MALME-3M melanoma = tested on: MALME-3M melanoma
# MCF7 breast = tested on: MCF7 breast
# MDA-MB-231 breast = tested on: MDA-MB-231 breast
# MOLT-4 leukemia = tested on: MOLT-4 leukemia
# NCI-H226 lung = tested on: NCI-H226 lung
# NCI-H23 lung = tested on: NCI-H23 lung
# NCI-H460 lung = tested on: NCI-H460 lung
# NCI-H522 lung = tested on: NCI-H522 lung
# NCI/ADR-RES ovarian = tested on: NCI/ADR-RES ovarian
# OVCAR-3 ovarian = tested on: OVCAR-3 ovarian
# OVCAR-4 ovarian = tested on: OVCAR-4 ovarian
# OVCAR-5 ovarian = tested on: OVCAR-5 ovarian
# OVCAR-8 ovarian = tested on: OVCAR-8 ovarian
# PC-3 prostate = tested on: PC-3 prostate
# RPMI-8226 leukemia = tested on: RPMI-8226 leukemia
# RXF 393 renal = tested on: RXF 393 renal
# SF-268 CNS = tested on: SF-268 CNS
# SF-295 CNS = tested on: SF-295 CNS
# SF-539 CNS = tested on: SF-539 CNS
# SK-MEL-2 melanoma = tested on: SK-MEL-2 melanoma
# SK-MEL-5 melanoma = tested on: SK-MEL-5 melanoma
# SK-OV-3 ovarian = tested on: SK-OV-3 ovarian
# SN12C renal = tested on: SN12C renal
# SNB-19 CNS = tested on: SNB-19 CNS
# SNB-75 CNS = tested on: SNB-75 CNS
# SR leukemia = tested on: SR leukemia
# SW-620 colon = tested on: SW-620 colon
# TK-10 renal = tested on: TK-10 renal
# U251 CNS = tested on: U251 CNS
# UACC-62 melanoma = tested on: UACC-62 melanoma
# UO-31 renal = tested on: UO-31 renal
structure (smiles),measurement,setting,value
CCOC(=O)[C@@H](C)C[C@H](Cc1ccccc1)NC(=O)c1csc([C@@H](C[C@H](C(C)C)N(C)C(=O)[C@@H](NC(=O)[C@H]2CCCCN2C)C(C)(C)C)OC(C)=O)n1,GI50,786-0 renal,< 1.67 nM
same,TGI,786-0 renal,> 6610 nM
same,GI50,A498 renal,< 1.67 nM
same,TGI,A498 renal,< 1.67 nM
same,GI50,A549 NSCLC,< 1.67 nM
same,TGI,A549 NSCLC,> 16700 nM
same,GI50,ACHN renal,< 1.67 nM
same,TGI,ACHN renal,> 16700 nM
same,GI50,BT-549 breast,< 1.67 nM
same,TGI,BT-549 breast,9.61 nM
same,GI50,CAKI-1 renal,< 1.67 nM
same,TGI,CAKI-1 renal,> 16700 nM
same,GI50,CCRF-CEM leukemia,< 1.67 nM
same,TGI,CCRF-CEM leukemia,> 16700 nM
same,GI50,COLO 205 colon,< 1.67 nM
same,TGI,COLO 205 colon,4.32 nM
same,GI50,EKVX NSCLC,< 1.67 nM
same,TGI,EKVX NSCLC,> 16700 nM
same,GI50,HCC-2998 colon,< 1.67 nM
same,GI50,HCT-116 colon,< 1.67 nM
same,GI50,HCT-15 colon,< 1.67 nM
same,TGI,HCT-15 colon,> 16700 nM
same,GI50,HL-60(TB) leukemia,< 1.67 nM
same,TGI,HL-60(TB) leukemia,< 1.67 nM
same,GI50,HOP-62 NSCLC,< 1.67 nM
same,TGI,HOP-62 NSCLC,> 16700 nM
same,GI50,HOP-92 NSCLC,< 1.67 nM
same,TGI,HOP-92 NSCLC,1440 nM
same,GI50,HS 578T breast,< 1.67 nM
same,TGI,HS 578T breast,472 nM
same,GI50,HT29 colon,< 1.67 nM
same,TGI,HT29 colon,> 7520 nM
same,GI50,IGROV1 ovarian,< 1.67 nM
same,TGI,IGROV1 ovarian,> 16700 nM
same,GI50,K-562 leukemia,< 1.67 nM
same,TGI,K-562 leukemia,> 16700 nM
same,GI50,KM12 colon,< 1.67 nM
same,TGI,KM12 colon,215 nM
same,GI50,LOX IMVI melanoma,< 1.67 nM
same,TGI,LOX IMVI melanoma,> 16700 nM
same,GI50,M14 melanoma,< 1.67 nM
same,TGI,M14 melanoma,29.4 nM
same,GI50,MALME-3M melanoma,< 1.67 nM
same,TGI,MALME-3M melanoma,> 16700 nM
same,GI50,MCF7 breast,< 1.67 nM
same,TGI,MCF7 breast,> 16700 nM
same,GI50,MDA-MB-231 breast,< 1.67 nM
same,TGI,MDA-MB-231 breast,647 nM
same,GI50,MOLT-4 leukemia,2.17 nM
same,TGI,MOLT-4 leukemia,> 16700 nM
same,GI50,NCI-H226 lung,< 1.67 nM
same,TGI,NCI-H226 lung,104 nM
same,GI50,NCI-H23 lung,< 1.67 nM
same,TGI,NCI-H23 lung,> 16700 nM
same,GI50,NCI-H460 lung,< 1.67 nM
same,TGI,NCI-H460 lung,> 5370 nM
same,GI50,NCI-H522 lung,< 1.67 nM
same,TGI,NCI-H522 lung,64.4 nM
same,GI50,NCI/ADR-RES ovarian,5.42 nM
same,GI50,OVCAR-3 ovarian,< 1.67 nM
same,TGI,OVCAR-3 ovarian,3.52 nM
same,GI50,OVCAR-4 ovarian,3.28 nM
same,TGI,OVCAR-4 ovarian,> 16700 nM
same,GI50,OVCAR-5 ovarian,< 1.67 nM
same,TGI,OVCAR-5 ovarian,> 16700 nM
same,GI50,OVCAR-8 ovarian,< 1.67 nM
same,TGI,OVCAR-8 ovarian,> 16700 nM
same,GI50,PC-3 prostate,< 1.67 nM
same,TGI,PC-3 prostate,> 16700 nM
same,GI50,RPMI-8226 leukemia,< 1.67 nM
same,TGI,RPMI-8226 leukemia,> 6360 nM
same,GI50,RXF 393 renal,< 1.67 nM
same,TGI,RXF 393 renal,> 16700 nM
same,GI50,SF-268 CNS,< 1.67 nM
same,TGI,SF-268 CNS,> 16700 nM
same,GI50,SF-295 CNS,< 1.67 nM
same,TGI,SF-295 CNS,91.8 nM
same,GI50,SF-539 CNS,< 1.67 nM
same,TGI,SF-539 CNS,4.37 nM
same,GI50,SK-MEL-2 melanoma,< 1.67 nM
same,TGI,SK-MEL-2 melanoma,> 16700 nM
same,GI50,SK-MEL-5 melanoma,< 1.67 nM
same,TGI,SK-MEL-5 melanoma,2.54 nM
same,GI50,SK-OV-3 ovarian,< 1.67 nM
same,TGI,SK-OV-3 ovarian,> 16700 nM
same,GI50,SN12C renal,3.07 nM
same,TGI,SN12C renal,> 16700 nM
same,GI50,SNB-19 CNS,< 1.67 nM
same,TGI,SNB-19 CNS,> 16700 nM
same,GI50,SNB-75 CNS,< 1.67 nM
same,TGI,SNB-75 CNS,12600 nM
same,GI50,SR leukemia,< 1.67 nM
same,TGI,SR leukemia,> 16700 nM
same,GI50,SW-620 colon,< 1.67 nM
same,TGI,SW-620 colon,> 16700 nM
same,GI50,TK-10 renal,117 nM
same,TGI,TK-10 renal,> 16700 nM
same,GI50,U251 CNS,< 1.67 nM
same,TGI,U251 CNS,> 16700 nM
same,GI50,UACC-62 melanoma,< 1.67 nM
same,TGI,UACC-62 melanoma,> 16700 nM
same,GI50,UO-31 renal,2.97 nM
same,TGI,UO-31 renal,> 10800 nM
